Source: ChEMBL document CHEMBL4308851, “Alkyl-guanidine Compounds as Potent Broad-Spectrum Antibacterial Agents: Chemical Library Extension and Biological Characterization” (J Med Chem, 2018)
Values after ≈ are worked out from the molar mass of the structure shown. Active and inactive are the calls of the source. The calls are words filed in the database; no cut-off is given here.

What was measured:
Escherichia coli [1] = assay: Disruption of inner membrane integrity in Escherichia coli MG1655 assessed as induction of […] conversion at 256 ug/ml measured at 10 mins intervals for 1 hr; type: functional, organism-based; conditions: K-12 substr. MG1655
Pseudomonas aeruginosa [2] = assay: Disruption of inner membrane integrity in Pseudomonas aeruginosa PAO1 ATCC 15692 co-expressing pMP2200::PrrnB plasmid assessed as induction of OPNG conversion at 256 ug/ml measured at 10 mins intervals for 1 hr; type: functional, organism-based
Acinetobacter baumannii [3] = assay: Disruption of inner membrane integrity in Acinetobacter baumannii ATCC 19606 co-expressing pMP2200::PrrnB plasmid assessed as induction of […] conversion at 256 ug/ml measured at 10 mins intervals for 1 hr; type: functional, organism-based; conditions: ATCC 19606 = CIP 70.34 = JCM 6841
Streptococcus pyogenes = assay: Antibacterial activity against Streptococcus pyogenes ATCC 12344 after 18 hrs by microdilution broth method; type: functional; conditions: ATCC 12344, 18 h
Klebsiella pneumoniae [4] = assay: Antibacterial activity against Klebsiella pneumoniae ATCC […] after 18 hrs by microdilution broth method; type: functional
Bacillus spizizenii = assay: Antibacterial activity against Bacillus subtilis ATCC 6633 after 18 hrs by microdilution broth method; type: functional; conditions: ATCC 6633, 18 h
Pseudomonas aeruginosa [5] = assay: Antibacterial activity against Pseudomonas aeruginosa ATCC 27853 after 18 hrs by microdilution broth method; type: functional; conditions: ATCC 27853, 18 h
Staphylococcus aureus = assay: Antibacterial activity against Staphylococcus aureus ATCC 25923 after 18 hrs by microdilution broth method; type: functional; conditions: ATCC 25923, 18 h
Enterococcus faecalis = assay: Antibacterial activity against Enterococcus faecalis ATCC 19433 after 18 hrs by microdilution broth method; type: functional; conditions: ATCC 19433, 18 h
Escherichia coli [6] = assay: Antibacterial activity against Escherichia coli CCUG after 18 hrs by microdilution broth method
Acinetobacter baumannii [7] = assay: Antibacterial activity against Acinetobacter baumannii ATCC 17978 after 18 hrs by microdilution broth method; type: functional; conditions: ATCC 17978, 18 h
Klebsiella pneumoniae [8] = assay: Antibacterial activity against Klebsiella pneumoniae isolate SI-081 after 18 hrs by microdilution broth method; type: functional; conditions: isolate SI-081, 18 h
[9] = tested on: Stenotrophomonas maltophilia; assay: Antibacterial activity against Stenotrophomonas maltophilia isolate 634/08 after 18 hrs by microdilution broth method; type: functional; conditions: isolate 634/08, 18 h
Enterobacter cloacae = assay: Antibacterial activity against Enterobacter cloacae isolate VA-417/02 after 18 hrs by microdilution broth method; type: functional; conditions: isolate VA-417/02, 18 h
Burkholderia cepacia = assay: Antibacterial activity against Burkholderia cepacia isolate SI-R2 after 18 hrs by microdilution broth method; type: functional; conditions: isolate SI-R2, 18 h

For `CCCCCCCCCCCCOS(=O)(=O)[O-].[Na+]`, the Activity (Escherichia coli [1]) was “Active”, the Activity (Pseudomonas aeruginosa [2]) was “Active” and the Activity (Acinetobacter baumannii [3]) was “Active”.

Work on `CCNC(=N)NCCCCCCN(CCCCCCNC(=N)N)C(=O)N(CCCCCCNC(=N)NCC)CCCCCCNC(=N)NCC` yielded an MIC (Streptococcus pyogenes) of 4 µg/mL (≈ 5.64 µM), an MIC (Klebsiella pneumoniae [4]) of 128 µg/mL (≈ 181 µM) and an MIC (Bacillus spizizenii) of 16 µg/mL (≈ 22.6 µM). For the same molecule, the MIC (Pseudomonas aeruginosa [5]) was over 256 µg/mL, the MIC (Staphylococcus aureus) was 32 µg/mL (≈ 45.1 µM) and the MIC (Enterococcus faecalis) was 64 µg/mL (≈ 90.3 µM). For the same molecule, the MIC (Escherichia coli [6]) was 64 µg/mL (≈ 90.3 µM) and the MIC (Acinetobacter baumannii [7]) was 256 µg/mL (≈ 361 µM).

`N=C(NCCCCCCCCN(CCCCCCCCNC(=N)NCc1ccccc1)C(=O)N(CCCCCCCCNC(=N)NCc1ccccc1)CCCCCCCCNC(=N)NCc1ccccc1)NCc1ccccc1` showed an MIC (Streptococcus pyogenes) of 1 µg/mL (≈ 0.911 µM), an MIC (Klebsiella pneumoniae [4]) of 4 µg/mL (≈ 3.64 µM) and an MIC (Bacillus spizizenii) of 4 µg/mL (≈ 3.64 µM). It also gave an MIC (Pseudomonas aeruginosa [5]) of 8 µg/mL (≈ 7.29 µM), an MIC (Staphylococcus aureus) of 8 µg/mL (≈ 7.29 µM) and an MIC (Enterococcus faecalis) of 4 µg/mL (≈ 3.64 µM). It also gave an MIC (Escherichia coli [6]) of 4 µg/mL (≈ 3.64 µM) and an MIC (Acinetobacter baumannii [7]) of 16 µg/mL (≈ 14.6 µM).

With `N=C(N)NCCCCCCCCN(CCCCCCCCNC(=N)NCc1ccccc1)C(=O)N(CCCCCCCCNC(=N)N)CCCCCCCCNC(=N)NCc1ccccc1` the MIC (Streptococcus pyogenes) was 2 µg/mL (≈ 2.18 µM), the MIC (Klebsiella pneumoniae [4]) was 2 µg/mL (≈ 2.18 µM) and the MIC (Bacillus spizizenii) was 2 µg/mL (≈ 2.18 µM). It also gave an MIC (Klebsiella pneumoniae [8]) of 8 µg/mL (≈ 8.72 µM), an MIC [9] of 8 µg/mL (≈ 8.72 µM) and an MIC (Pseudomonas aeruginosa [5]) of 16 µg/mL (≈ 17.4 µM). It also gave an MIC (Staphylococcus aureus) of 2 µg/mL (≈ 2.18 µM), an MIC (Enterococcus faecalis) of 2 µg/mL (≈ 2.18 µM) and an MIC (Enterobacter cloacae) of 4 µg/mL (≈ 4.36 µM). For the same molecule, the MIC (Burkholderia cepacia) was 16 µg/mL (≈ 17.4 µM), the MIC (Escherichia coli [6]) was 4 µg/mL (≈ 4.36 µM) and the MIC (Acinetobacter baumannii [7]) was 8 µg/mL (≈ 8.72 µM).

`N=C(N)NCCCCCCN(CCCCCCNC(=N)NCC1CC1)C(=O)N(CCCCCCNC(=N)NCC1CC1)CCCCCCNC(=N)NCC1CC1` showed an MIC (Streptococcus pyogenes) of 2 µg/mL (≈ 2.54 µM), an MIC (Klebsiella pneumoniae [4]) of 16 µg/mL (≈ 20.3 µM) and an MIC (Bacillus spizizenii) of 4 µg/mL (≈ 5.08 µM). The MIC (Pseudomonas aeruginosa [5]) was 128 µg/mL (≈ 163 µM), the MIC (Staphylococcus aureus) was 4 µg/mL (≈ 5.08 µM) and the MIC (Enterococcus faecalis) was 16 µg/mL (≈ 20.3 µM). The MIC (Escherichia coli [6]) was 8 µg/mL (≈ 10.2 µM) and the MIC (Acinetobacter baumannii [7]) was 64 µg/mL (≈ 81.3 µM).

Work on `CCNC(=N)NCCCCCCCCN(CCCCCCCCNC(=N)N)C(=O)N(CCCCCCCCNC(=N)N)CCCCCCCCNC(=N)NCC` yielded an MIC (Streptococcus pyogenes) of 0.5 µg/mL (≈ 0.63 µM), an MIC (Klebsiella pneumoniae [4]) of 2 µg/mL (≈ 2.52 µM) and an MIC (Bacillus spizizenii) of 1 µg/mL (≈ 1.26 µM). It also gave an MIC (Klebsiella pneumoniae [8]) of 4 µg/mL (≈ 5.04 µM), an MIC [9] of 16 µg/mL (≈ 20.2 µM) and an MIC (Pseudomonas aeruginosa [5]) of 16 µg/mL (≈ 20.2 µM). For the same molecule, the MIC (Staphylococcus aureus) was 1 µg/mL (≈ 1.26 µM), the MIC (Enterococcus faecalis) was 1 µg/mL (≈ 1.26 µM) and the MIC (Enterobacter cloacae) was 4 µg/mL (≈ 5.04 µM). For the same molecule, the MIC (Burkholderia cepacia) was 32 µg/mL (≈ 40.3 µM), the MIC (Escherichia coli [6]) was 2 µg/mL (≈ 2.52 µM) and the MIC (Acinetobacter baumannii [7]) was 16 µg/mL (≈ 20.2 µM).

Work on `CN[C@H](CC(C)C)C(=O)N[C@H]1C(=O)N[C@@H](CC(N)=O)C(=O)N[C@H]2C(=O)N[C@H]3C(=O)N[C@H](C(=O)N[C@H](C(=O)O)c4cc(O)cc(O)c4-c4cc3ccc4O)[C@H](O)c3ccc(c(Cl)c3)Oc3cc2cc(c3O[C@@H]2O[C@H](CO)[C@@H](O)[C@H](O)[C@H]2O[C@H]2C[C@](C)(N)[C@H](O)[C@H](C)O2)Oc2ccc(cc2Cl)[C@H]1O` [VANCOMYCIN] yielded an MIC (Bacillus spizizenii) of 0.5 µg/mL (≈ 0.345 µM) and an MIC (Enterococcus faecalis) of 1 µg/mL (≈ 0.69 µM).

Work on `N=C(N)NCCCCCCCCN(CCCCCCCCNC(=N)N)C(=O)N(CCCCCCCCNC(=N)NCC1CC1)CCCCCCCCNC(=N)NCC1CC1` yielded an MIC (Streptococcus pyogenes) of 4 µg/mL (≈ 4.73 µM), an MIC (Klebsiella pneumoniae [4]) of 4 µg/mL (≈ 4.73 µM) and an MIC (Bacillus spizizenii) of 2 µg/mL (≈ 2.37 µM). It also gave an MIC (Pseudomonas aeruginosa [5]) of 16 µg/mL (≈ 18.9 µM), an MIC (Staphylococcus aureus) of 8 µg/mL (≈ 9.46 µM) and an MIC (Enterococcus faecalis) of 8 µg/mL (≈ 9.46 µM). It also gave an MIC (Escherichia coli [6]) of 4 µg/mL (≈ 4.73 µM) and an MIC (Acinetobacter baumannii [7]) of 16 µg/mL (≈ 18.9 µM).
